Measured values published in patent US7557134B2, “N-(heteroaryl)-1H-indole-2-carboxamide derivatives and their use as vanilloid TRPV1 receptor ligands” (Sanofi-Aventis, priority 2005, dated 2009).
Counter-ions that a name gives are not always drawn.

biological target: T1, TRPV1 receptor (Rattus norvegicus, UniProt O35433); experiment: Test of inhibition of the current induced with capsaicin on rat DRGs (whole-cell patch-clamp); format: cell-based; settings: DRG neuron; compound 1 nM; capsaicin response 300 nM; rat DRG neurons
T1 construct: The neurons of the DRG naturally express the TRPV1 receptor; endogenous in cells; host or cells: primary culture of newborn rat dorsal root ganglion neurons
Description: Test of Inhibition of the Current Induced with Capsaicin on rat DRGs
• Primary culture of rat dorsal root ganglion (DRG) cells:
The neurons of the DRG naturally express the TRPV1 receptor.
The primary cultures of newborn rat DRGs are prepared using 1-day-old rats. Briefly, after dissection, the ganglions are trypsinized and the cells dissociated by mechanical trituration. The cells are resuspended in an Eagle basal culture medium containing 10% fetal calf serum, 25 mM KCl, 2 mM glutamine, 100 μg/ml gentamicin and 50 ng/ml of NGF, and then deposited on glass slides coated with laminin (0.25×10^6 cells per slide), which are then placed in Corning 12-well dishes. The cells are incubated at 37° C. in a humidified atmosphere containing 5% CO2 and 95% air. Cytosine β-D-arabinoside (1 μM) is added 48 hours after culturing, to prevent the growth of non-neuronal cells. The slides are transferred into experimental chambers for the patch-clamp studies after 7-10 days of culturing.
The measuring chambers (volume 800 μl) containing the cell preparation are placed on the platform of an inverted microscope (Olympus IMT2) equipped with Hoffman optics (Modulation Contrast, New York) and observed at a magnification of 400×. The chambers are continuously gravity-influxed (2.5 ml/min) using a solution distributor accepting 8 inlets and whose sole outlet, consisting of a polyethylene tube (aperture 500 μm), is placed less than 3 mm from the cell under study. The “whole cell” configuration of the patch-clamp technique was used. […] The overall currents (membrane potential set at […]) are recorded with an Axopatch 1 D amplifier (Axon Instruments, Foster city, Calif.), connected to a PC running the Pclamp8 software (Axon Instrument). The current plots are recorded on paper and simultaneously digitized (sampling frequency 15 to 25 Hz) and acquired on the hard drive of the PC.
The application of a 300 nM capsaicin solution induces on the DRG cells (voltage set at −70 mV) an entering cationic current. […] The results are expressed as a percentage of inhibition of the control capsaicin response.

T1 sequence (O35433 whole entry): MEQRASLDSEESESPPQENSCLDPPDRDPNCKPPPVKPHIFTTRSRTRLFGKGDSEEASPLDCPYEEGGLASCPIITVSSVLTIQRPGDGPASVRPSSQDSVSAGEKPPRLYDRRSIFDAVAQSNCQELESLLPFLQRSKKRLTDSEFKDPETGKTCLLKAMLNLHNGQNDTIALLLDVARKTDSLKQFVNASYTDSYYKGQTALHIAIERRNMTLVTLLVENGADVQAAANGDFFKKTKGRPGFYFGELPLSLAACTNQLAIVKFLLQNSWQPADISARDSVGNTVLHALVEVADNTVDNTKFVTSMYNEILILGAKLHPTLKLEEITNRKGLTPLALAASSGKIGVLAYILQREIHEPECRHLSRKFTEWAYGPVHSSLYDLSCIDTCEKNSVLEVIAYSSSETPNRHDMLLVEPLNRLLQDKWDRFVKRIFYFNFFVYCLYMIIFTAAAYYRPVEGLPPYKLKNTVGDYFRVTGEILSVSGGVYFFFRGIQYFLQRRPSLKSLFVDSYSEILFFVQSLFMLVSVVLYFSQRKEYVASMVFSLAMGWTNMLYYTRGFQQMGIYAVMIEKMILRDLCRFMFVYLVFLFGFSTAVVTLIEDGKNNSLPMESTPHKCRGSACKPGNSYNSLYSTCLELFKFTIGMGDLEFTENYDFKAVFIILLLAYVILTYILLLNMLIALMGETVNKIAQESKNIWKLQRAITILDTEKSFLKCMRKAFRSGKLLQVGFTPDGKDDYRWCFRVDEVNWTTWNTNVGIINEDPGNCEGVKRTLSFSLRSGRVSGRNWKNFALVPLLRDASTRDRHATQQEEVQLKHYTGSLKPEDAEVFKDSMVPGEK

Molecule `Cn1ncc2cc(NC(=O)c3cc4cc(C(F)(F)F)ccc4n3Cc3cccc(F)c3)ccc21` [Compound 19, N-(1-methyl-1H-indazol-5-yl)-5-trifluoromethyl-1-[(3-fluorophenyl)methyl]-1H-indole-2-carboxamide] has an inhibition at 0.001 µM of 48%.

tested on: not given; experiment: not given; settings: not given

First: Cc1nc2ccc(NC(=O)c3cc4cc(F)ccc4n3Cc3cccc(F)c3)cc2[nH]1 (as salt: HCl)
Second: O=C(Nc1ccc2nc[nH]c2c1)c1cc2cc(F)ccc2n1Cc1cccc(F)c1 (as salt: HCl)
The melting point of the first is lower: 195 to 200 °C for the first, 275 to 280 °C for the second.

First: Cc1nc2cc(NC(=O)c3cc4cc(C(F)(F)F)ccc4n3Cc3cccc(F)c3)ccc2o1
Second: CCc1nc2cc(NC(=O)c3cc4cc(C(F)(F)F)ccc4n3Cc3cccc(F)c3)ccc2o1 [Compound 46, N-(2-ethylbenzoxazol-5-yl)-5-trifluoromethyl-1-[(3-fluorophenyl)methyl]-1H-indole-2-carboxamide]
The melting point of the first is lower: 182 to 183 °C for the first, 187 to 189 °C for the second.

First: O=C(Nc1ccc2ncsc2c1)c1cc2cc(F)ccc2n1Cc1cccc(F)c1
Second: O=C(Nc1ccc2ncsc2c1)c1cc2cc(C(F)(F)F)ccc2n1Cc1cccc(F)c1
The melting point of the first is lower: 167 to 168 °C for the first, 191 to 192 °C for the second.

First: O=C(Nc1cccc2c1NCCC2)c1cc2ccccc2n1-c1cccc(C(F)(F)F)c1 [Compound 16, N-(1,2,3,4-tetrahydroquinol-8-yl)-1-[3-(trifluoromethyl)phenyl]-1H-indole-2-carboxamide]
Second: O=C(Nc1ccc2c(c1)NCCC2)c1cc2ccccc2n1-c1cccc(C(F)(F)F)c1 [Compound 4, N-(1,2,3,4-tetrahydroquinol-7-yl)-1-[3-(trifluoromethyl)phenyl]-1H-indole-2-carboxamide]
The melting point of the first is lower: 93 to 95 °C for the first, 140 to 143 °C for the second.

Compared with `O=C(Nc1ccc2occc2c1)c1cc2ccccc2n1-c1cccc(C(F)(F)F)c1` [Compound 8, N-(benzofuran-5-yl)-1-[3-(trifluoromethyl)phenyl]-1H-indole-2-carboxamide], `O=C(Nc1ccc2ocnc2c1)c1cc2ccccc2n1-c1cccc(C(F)(F)F)c1` [Compound 17, N-(benzoxazol-5-yl)-1-[3-(trifluoromethyl)phenyl]-1H-indole-2-carboxamide] is higher in melting point: 141 to 143 °C for the first, 222 to 224 °C for the second.

First: O=C(Nc1ccc2ccncc2c1)c1cc2cc(F)ccc2n1Cc1cccc(F)c1 (as salt: HCl)
Second: O=C(Nc1ccc2cnccc2c1)c1cc2cc(F)ccc2n1Cc1cccc(F)c1
The melting point of the first is higher: 270 to 272 °C for the first, 139 to 141 °C for the second.

First: CN1CCCc2ccc(NC(=O)c3cc4cc(C(F)(F)F)ccc4n3Cc3cccc(F)c3)cc21 [Compound 27, N-(1-methyl-1,2,3,4-tetrahydroquinol-7-yl)-5-trifluoromethyl-1-[(3-fluorophenyl)methyl]-1H-indole-2-carboxamide]
Second: CS(=O)(=O)N1CCc2cc(NC(=O)c3cc4cc(C(F)(F)F)ccc4n3Cc3cccc(F)c3)ccc21 [Compound 31, N-(1-methylsulfonylindolin-5-yl)-5-trifluoromethyl-1-[(3-fluorophenyl)methyl]-1H-indole-2-carboxamide]
The melting point of the first is lower: 146 to 147 °C for the first, 214 to 215 °C for the second.

Compared with `CS(=O)(=O)N1CCc2cc(NC(=O)c3cc4cc(F)ccc4n3Cc3cccc(F)c3)ccc21` [Compound 44, N-(1-methylsulfonylindolin-5-yl)-5-fluoro-1-[(3-fluorophenyl)methyl]-1H-indole-2-carboxamide], `O=C1Cc2cc(NC(=O)c3cc4cc(F)ccc4n3Cc3cccc(F)c3)ccc2N1` [Compound 42, N-(2-oxoindolin-5-yl)-5-fluoro-1-[(3-fluorophenyl)methyl]-1H-indole-2-carboxamide] is higher in melting point: 192 to 193 °C for the first, 249 to 250 °C for the second.

First: Cn1cnc2cc(NC(=O)c3cc4cc(F)ccc4n3Cc3cccc(F)c3)ccc21
Second: Cn1cnc2ccc(NC(=O)c3cc4cc(F)ccc4n3Cc3cccc(F)c3)cc21
The melting point of the first is higher: 248 to 251 °C for the first, 215 to 216 °C for the second.

Compared with `Cn1cnc2c(NC(=O)c3cc4cc(F)ccc4n3Cc3cccc(F)c3)cccc21`, `O=C(Nc1cccc2cnccc12)c1cc2cc(F)ccc2n1Cc1cccc(F)c1` is higher in melting point: 195 to 197 °C for the first, 206 to 207 °C for the second.

First: COc1ccc2cc(C(=O)Nc3ccc4c(c3)NC(=O)CC4)n(Cc3ccc(F)cc3)c2c1 [Compound 53, N-(2-oxo-3,4-dihydroquinol-7-yl)-6-methoxy-1-[(4-fluorophenyl)methyl]-1H-indole-2-carboxamide]
Second: O=C1CCc2ccc(NC(=O)c3cc4cc(C(F)(F)F)ccc4n3Cc3cccc(F)c3)cc2N1 [Compound 41, N-(2-oxo-3,4-dihydroquinol-7-yl)-5-trifluoromethyl-1-[(3-fluorophenyl)methyl]-1H-indole-2-carboxamide]
The melting point of the first is lower: 255 to 256 °C for the first, 298 to 299 °C for the second.

First: O=C(Nc1ccc2[nH]nnc2c1)c1cc2cc(F)ccc2n1Cc1cccc(F)c1
Second: O=C(Nc1ccc2[nH]nnc2c1)c1cc2cc(C(F)(F)F)ccc2n1Cc1cccc(F)c1
The melting point of the first is higher: 220 to 221 °C for the first, 167 to 174 °C for the second.

Compared with `O=C(Nc1ccc2ncccc2c1)c1cc2cc(F)ccc2n1Cc1cccc(F)c1`, `O=C(Nc1ccc2nccnc2c1)c1cc2cc(F)ccc2n1Cc1cccc(F)c1` is lower in melting point: 208 to 210 °C for the first, 188 to 189 °C for the second.

Compared with `O=C1Cc2cc(NC(=O)c3cc4cc(C(F)(F)F)ccc4n3Cc3cccc(F)c3)ccc2N1` [Compound 25, N-(2-oxoindolin-5-yl)-5-trifluoromethyl-1-[(3-fluorophenyl)methyl]-1H-indole-2-carboxamide], `Cc1nc2cc(NC(=O)c3cc4cc(C(F)(F)F)ccc4n3Cc3cccc(F)c3)ccc2s1` is lower in melting point: 244 to 246 °C for the first, 191 to 192 °C for the second.

First: Cc1nc2cc(NC(=O)c3cc4cc(F)ccc4n3Cc3cccc(F)c3)ccc2s1
Second: Cc1nc2cc(NC(=O)c3cc4cc(F)ccc4n3Cc3cccc(F)c3)ccc2o1
The melting point of the first is higher: 201 to 202 °C for the first, 188 to 189 °C for the second.

First: CN1CCCc2ccc(NC(=O)c3cc4ccccc4n3-c3cccc(C(F)(F)F)c3)cc21 [Compound 2, N-(1-methyl-1,2,3,4-tetrahydroquinol-7-yl)-1-[3-(trifluoromethyl)phenyl]-1H-indole-2-carboxamide]
Second: O=C(Nc1ccc2c(c1)CCNO2)c1cc2ccccc2n1-c1cccc(C(F)(F)F)c1 [Compound 10, N-(2,3-dihydrobenzoxazin-6-yl)-1-[3-(trifluoromethyl)phenyl]-1H-indole-2-carboxamide]
The melting point of the first is higher: 92 to 95 °C for the first, 90 to 92 °C for the second.

First: Cn1ncc2cc(NC(=O)c3cc4cc(F)ccc4n3Cc3cccc(F)c3)ccc21
Second: Cc1nc2cc(NC(=O)c3cc4cc(F)ccc4n3Cc3cccc(F)c3)ccc2n1C
The melting point of the first is lower: 210 to 211 °C for the first, 281 to 282 °C for the second.

First: O=C1Cc2ccc(NC(=O)c3cc4ccccc4n3-c3cccc(C(F)(F)F)c3)cc2ON1 [Compound 11, N-(3-oxo-2H-benzoxazin-7-yl)-1-[3-(trifluoromethyl)phenyl]-1H-indole-2-carboxamide]
Second: CC1C(=O)NOc2cc(NC(=O)c3cc4ccccc4n3-c3cccc(C(F)(F)F)c3)ccc21 (stereo not drawn) [Compound 5, N-(4-methyl-3-oxo-2H-benzoxazin-7-yl)-1-[3-(trifluoromethyl)phenyl]-1H-indole-2-carboxamide]
The melting point of the first is higher: 214 to 216 °C for the first, 198 to 200 °C for the second.

First: O=C(Nc1ccc2oc(-c3ccccc3)nc2c1)c1cc2cc(C(F)(F)F)ccc2n1Cc1cccc(F)c1 [Compound 47, N-(2-phenylbenzoxazol-5-yl)-5-trifluoromethyl-1-[(3-fluorophenyl)methyl]-1H-indole-2-carboxamide]
Second: CC1C(=O)NOc2ccc(NC(=O)c3cc4ccccc4n3-c3cccc(C(F)(F)F)c3)cc21 (stereo not drawn) [Compound 6, N-(4-methyl-3-oxo-2H-benzoxazin-6-yl)-1-[3-(trifluoromethyl)phenyl]-1H-indole-2-carboxamide]
The melting point of the first is higher: 194 to 195 °C for the first, 178 to 180 °C for the second.
